Legend:
[1] = system: Mouse colon cancer MC38 cells; test: In vivo efficacy in MC-38 model; design: species or system C57BL6N mice; conditions: small molecules 15mg/kg PO QD, PD-1 1mg/kg IV QW, BDO 2mg/kg IP QW, 21 days; for TGI(%): 6 mice per group
Experimental: Female C57BL6N mice (aged 6 weeks, 18-22 g) were provided by Vital River Laboratory Animal Technology Co., Ltd. (China) and used one week after quarantine and acclimation. All animals were kept in a room at 23±2 °C with a relative humidity of 50±5%, artificial lighting was provided from 08:00 to 20:00 every day, and the air was exchanged 13-18 times per hour. Mouse colon cancer MC38 cells were cultured conventionally in 1640 medium containing 10% fetal bovine serum in an incubator at 37 °C with 5% CO2. After being subcultured, the cells were collected when they reached the desired amount. The C57BL6N mice were subcutaneously injected with 2 × 10^6 MC38 cells on the right side to form tumors. After the tumors grew to about 100 mm^3, the animals were randomly grouped for administration. Tumor volumes were measured with a caliper on day 3, day 7, day 10, day 14, day 17, and day 21 after the administration. […] The toxicity of the compounds was evaluated according to the body weight and state of the mice.
Table 15. In vivo efficacy of some of the compounds of the present disclosure in MC-38 model

[2] = system: HeLa cells; test: Intracellular acetyl lysine / H3K 27 acetyl lysine level by ELISA; assay type: cell-based; conditions: 24 h of treatment
Experimental: HeLa cells were seeded into a 96-well plate at 20000 cells/well. After overnight adherence culture, the serially diluted compound was added. After 24 h of treatment, intracellular levels of acetyl lysine and H3K 27 acetyl lysine were quantified by ELISA. Table 9. Effect of compound of the present disclosure on levels of acetyl lysine and H3K 27 acetyl lysine

[3] = Metabolite identification in liver microsomes and hepatocytes from various species; assay type: in vitro ADME; conditions: 10 µM compound, 1.0 mg/mL liver microsomes, 37 °C, 120 min; mouse, rat, dog, monkey, human
Experimental: After the 10 µM compound was separately incubated with 1.0 mg/mL liver microsomes or hepatocytes (from 5 species: mouse, rat, dog, monkey, and human), and an NADPH regeneration system at 37 °C for 120 min, a stop solution was added to terminate the reaction, and the incubated samples were removed from the water bath. After the reaction was terminated, the samples were vortexed and then centrifuged at 4 °C and 3260× g for 15 min. After centrifugation, all the supernatants were transferred to a 96-well plate for direct use in LC-MS analysis, or subjected to dilution or concentration and reconstitution prior to injection. An LC-UV-HRMSn (n = 1-2) analytical method was established on LC-UV-HRMSn, and data acquisition was performed using SCIEX OS software. The parent drug and the metabolites could be analyzed by mass spectrometry with different scanning modes (MS/MS or IDA) and ultraviolet full-wavelength scanning (λ = 190-500 nm). By comparing the ultraviolet and mass spectra of the post-incubation samples with those of blank samples from the same species, potential metabolites were identified. The possible structures of the metabolites were inferred by comparative analysis of the collision-induced dissociation (CID) fragments of the test compounds and their metabolites. The metabolites and their relative abundances were summarized in a table for interspecies comparison.

[4] = system: OVCAR 3 cells; test: NK cell-mediated tumor cell killing (NK92 cells, GFP count); assay type: cell-based; conditions: Homo sapiens, 72 h compound, 1-4 h co-culture, compared to DMSO group, read-out: EC50 in promoting the NK92 cell-mediated OVCAR 3 cell death
Experimental: OVCAR 3 cells […] expressing GFP were seeded into a 96-well plate at 4000 cells/well. After overnight adherence culture, the serially diluted compounds were added, and the plate was incubated for another 72 h. After the two types of cells were mixed and cultured for another 1-4 h, NK92 cells were removed by washing with PBS, and adherent GFP-positive tumor cells were counted. The EC50 of the compounds in promoting the NK92 cell-mediated OVCAR 3 cell death was calculated compared to the DMSO group. Table 11. NK cell-mediated tumor cell killing by compounds of the present disclosure

[5] = Pharmacokinetic experiment in rats; assay type: in vivo; conditions: female, rat, plasma
Experimental: Healthy female rats aged 6 to 8 weeks were intravenously administered and orally administered at doses of 1 mg/kg and 10 mg/kg. The rats were fasted overnight before the administration.
On the day of the experiment, animals in the intravenous group were given the corresponding compound by single injection via the tail vein at an administration volume of 10 mL/kg; and animals in the oral group were given the corresponding compound by single intragastric injection at an administration volume of 10 mL/kg. The sample collection time points were 0.083 h, 0.167 h, 0.5 h, 1 h, 2 h, 4 h, 8 h, and 24 h. About 200 µL of whole blood was collected through the neck at each time point and used to prepare plasma for concentration determination by high-performance liquid chromatography-tandem mass spectrometry (LC-MS/MS). The plasma concentrations were processed using a non-compartmental model of Winnolin pharmacokinetic software, and the pharmacokinetic parameters were calculated using a linear-log trapezoidal method. Table 14. Results of in vivo pharmacokinetic evaluation of compounds

[6] = Injection (1 mg/kg), intravenous

SMILES	Change in body weight [1]	TGI(%) [1]	Acetyl lysine Maximum (%) [2]	Acetyl lysine Minimum effective concentration [2]	H3K 27 Acetyl lysine Maximum (%) [2]	H3K 27 Acetyl lysine Minimum effective concentration [2]	metabolic pathways and stability in liver microsomes from all the species [3]	EC50 [4]	AUC(0-t) [5, 6]	clearance [5, 6]	half-life [5, 6]	Vd ([5]; Injection (1 mg/kg), intravenous, read-out: Vdss)	AUC(0-t) ([5]; Oral administration (10 mg/kg))	Cmax ([5]; Oral administration (10 mg/kg))	Tmax ([5]; Oral administration (10 mg/kg))	bioavailability ([5]; Oral administration (10 mg/kg))	half-life ([5]; Oral administration (10 mg/kg))
[2H]c1cc(C(=O)Nc2ccc(F)cc2N)ccc1CNC(=O)/C=C/c1cccnc1 [Compound 5, (E)-N-(2-amino-4-fluorophenyl)-4-((3-(pyridin-3-yl)acrylamido)methyl)-3-d benzamide]	+24.2%	12.2%	350%	16 nM	420%	80 nM	simple metabolic pathways and good stability in liver microsomes from all the species	33.7 nM	1260 ng·h/mL	12.9 mL/min/kg	392 min	2.42 L/kg	5150 ng·h/mL	3420 ng/mL	9.6 min	40.1%	241 min
Nc1cc(F)ccc1NC(=O)c1ccc(CNC(=O)/C=C/c2cccnc2)cc1 [Chidamide, reference compound]	+21.1%	8.9%	420%	80 nM	380%	80 nM	–	161 nM	–	–	–	–	–	–	–	–	–
